Assay results reported in a melting point compilation (Tetko et al.; mined from patent text by program, amines drawn as free bases though some values may be those of a salt).

| Compound | melting point [°C] |
| --- | --- |
| CS(=O)(=O)c1ccc(-n2nc(-c3ccc(F)cc3)cc2C(F)(F)F)cc1 | 158 to 160 |
| Cc1ccc(C(=O)C2=C(O)C(=O)N(c3ncc(S(=O)(=O)N4CCOCC4)s3)C2c2ccc(C(C)C)cc2)cc1 (centres undefined) | 247 to 252 |
| CC(=O)c1ccccc1OC1SCC(O)C(O)C1O (centres undefined) | 102 to 105 |
| CCCOc1cc(C(=O)O)cc([N+](=O)[O-])c1C(=O)c1ccccc1 | 160 to 162 |
| Cc1noc(NS(=O)(=O)c2ccc(-c3ccc4c(c3)OCO4)cc2)c1Br | 172 to 174 |
| CC(C)n1nc(-c2c(-c3ccccc3)nn3ccc(OCC(=O)N4CCN(C(=O)OC(C)(C)C)CC4)cc23)ccc1=O | 140 to 144 |
| N#Cc1ccc(-c2ccc(-c3ccn([C@H](CC(=O)OCc4ccccc4)C(=O)N[C@H](CO)Cc4ccccc4)c3)cc2)cc1 | 149 to 150 |
| CCc1c(-c2ccc(O)cc2)c2ccc3ccc(CO)c1n32 | 154 to 156 |
| Cc1[nH]c2ccc(Br)cc2c1Cc1cccnc1 | 188 to 190 |
| BrCCCCCCOc1ccc(OCc2ccccc2)cc1 | 72 to 73 |
| O=C1NCc2cccnc2N1c1ccccc1 | 269 to 271 |
| O=C(Cc1ccc(CN2CCC(=O)C(C(c3ccccc3)c3ccccc3)C2)cc1)OCC(=O)c1ccccc1 (centres undefined) | 99 to 110 |
| O=C(O)C1CC=CCC1C(=O)N1CCc2cc(S(=O)(=O)N3CCN(c4cccc(Cl)c4)CC3)ccc21 (centres undefined) | 146 to 148 |
| CN1CCOc2cc(O)ccc21 | 84 to 87 |
| CC(C)(C)OC(=O)NCC1CN[C@@H]2CCO[C@H]12 (relative stereo) | 59 to 67 |
| CS(=O)(=O)N(C(=O)OCc1ccccc1)c1cc(O)ccc1OCc1ccccc1 | 138 to 140 |
| Cc1c(CN2CCC(c3c(Cl)cccc3Cl)CC2)[nH]c2ccccc12 | 139 to 141 |
| ClC(Cl)(Cl)C1NCCO1 (centres undefined) | 73 |
| O=c1c(Cl)c(Cl)cnn1-c1cc(C(F)(F)F)cc(C(F)(F)F)c1 | 255 to 262 |
| CCc1nc(-c2cccc(C)c2)c(-c2ccnc(CC#N)c2)s1 | 68 to 69 |

| Compound | melting point [°C] |
| --- | --- |
| NC(=O)c1cnn2c(-c3cccc(F)c3)ccnc12 | 247 to 249 |
| CN1CC=C(c2cc3ccccc3c(=O)[nH]2)CC1 | 222 to 223 |
| COc1ccccc1N(CCN1CCC(C(=O)c2ccc(F)cc2)CC1)S(=O)(=O)C1=CCC(=NO)C=C1 | 162 to 168 |
| C[C@@H]1CN(c2ccc(S(=O)(=O)c3ccccc3)c3ccccc23)C[C@H](C)N1 | 168 to 169 |
| Cc1ccc(C(OC2CCN(CC(=O)O)CC2)c2ccccc2)cc1 (centres undefined) | 73.5 to 75 |
| COCc1ccc(C2(O)CCN(CC(O)c3cc(C)c(O)cc3C)CC2)cc1 (centres undefined) | 166 |
| CCCCCCCCCCCCCC(CP(c1ccccc1)c1ccccc1)C(C)CP(c1ccccc1)c1ccccc1 (centres undefined) | 105 to 106 |
| COc1cccc(-c2csc(-c3cccc([N+](=O)[O-])c3)n2)c1 | 122 to 123 |
| CCOc1ccc(-c2c(C(=O)OC)c(C(=O)OC)c(O)c3cc(OC)c(OC)c(OC)c23)cc1OCC | 138 to 140 |
| CN(c1cccc(C(F)(F)F)c1)c1nc2c(-c3cccc(C(=O)NCCO)c3)cccc2n1C | 156 to 158 |
| CCC1CC2=C(CO1)C(=O)c1ccccc1C2=O (centres undefined) | 98 to 101 |
| CCCCCCS(=O)(=O)c1nnnn1CC(=O)OCC | 40 to 42 |
| CC(=O)O[C@H]1CC[C@H](CCCCCC(=O)O)CC1 | 82 to 86 |
| CC1CCc2c(N3CCC(O)CC3)c(F)cc3c(=O)c(C(=O)O)cn1c23 (centres undefined) | 244 to 247 |
| COc1ccc(S(=O)(=O)Nc2nc(-c3cccc4ccccc34)cs2)cc1 | 98 to 100 |
| Fc1ccc(Cn2c(NCCN3CCC(Nc4nc5ccccc5n4Cc4ccc(F)cc4)CC3)nc3ccccc32)cc1 | 197 |
| O=C(NCC(=O)N1c2ccccc2N(Cc2ccccc2)C(=O)[C@H]2CCC[C@H]21)c1ccc([N+](=O)[O-])cc1 (relative stereo) | 231 to 233 |
| CC1(C)OC(=S)Nc2ccc(-c3cccc([N+](=O)[O-])c3)cc21 | 224 to 226 |
| NS(=O)(=O)c1ccc(N2CCN(CCC3=CCCc4ccccc43)CC2)cc1 | 222 |
| ON=C1CCOc2ccccc21 | 114 to 117 |

| Compound | melting point [°C] |
| --- | --- |
| COc1ccc(C(=O)c2c(N)sc(C)c2C)cc1OC | 172 to 173 |
| O=C1NC(=O)C2(c3cc(O)c(Cl)cc3F)CCCCC12 (centres undefined) | 140 to 141 |
| CCN(CC)N(C(C)=O)c1nc2cc3nc(N(C(C)=O)N4CCCCC4)sc3cc2s1 | 280 to 282 |
| COc1cc(C(=O)CCC(=O)c2cc(OCc3ccccc3)c(O)c(S(=O)(=O)CCO)c2)cc(OC)c1OC | 129 to 130 |
| NCCN1CCC(Nc2nc3ccccc3n2Cc2ccccn2)C1 (centres undefined) | 130 |
| Cc1nc2ccccn2c(=O)c1CCN1CCC(=C(c2ccc(F)cc2)c2ccc(F)cc2)CC1 | 109 |
| CCCCC/C(=C\c1ccccc1)CNc1cccc(-c2ccnc3c(C(=O)c4cccs4)cnn23)c1 | 110 to 112 |
| O=[N+]([O-])C=C1CN=C(c2ccccc2Cl)c2cc(Cl)ccc2N1 | 182 to 185 |
| CCCCN(CC)CC(=O)N1c2ccccc2NC(=O)c2cncnc21 | 151 to 152 |
| O=C(O)c1ccc2cc([N+](=O)[O-])c3ccc(C(=O)O)nc3c2n1 | 218 to 220 |
| N#Cc1cc(C(=O)NNC(=O)c2occc2-c2ccccc2OCc2ccccc2)ccc1O | 118 to 120 |
| O=Cc1ccc(-c2ccc(-c3ccc(C=O)o3)nc2)cc1 | 217 to 219 |
| CCOC(Cc1ccc(OCCN(C)c2nc3ccccc3o2)cc1)C(N)=S (centres undefined) | 46 to 48 |
| COc1ccc(N2CCN(c3c(C)c(C)c4c(c3C)C(c3ccc(F)nc3)C(C)(C)O4)CC2)cc1 (centres undefined) | 87 to 88 |
| N#Cc1nc(-c2nn(-c3c(Cl)cc(C(F)(F)F)cc3Cl)nc2Cl)[nH]c1C#N | 206 to 208 |
| CCn1c2ccccc2c2sccc(=O)c21 | 103 to 104 |
| CCc1c(CC#N)ccc(O)c1O | 101 to 103 |
| COc1ccc(-c2nc(C(C)C)sc2-c2ccc(OC)cc2)cc1 | 61 to 65 |

More lines, now with the values ahead:

| melting point [°C] | Compound |
| --- | --- |
| 169 | CCCc1csc(NS(=O)(=O)c2cccc(Cl)c2C)n1 |
| 172 to 174 | N=C(Cl)c1c(Cc2ccc(Cl)cc2)nc2ccc(I)cc2c1O |
| 230 | CCCc1cc(C)c(OCCO)c(C(Nc2ccc(C(=N)N)cc2)C(=O)O)c1 (racemic) |
| 130 to 131 | CC(C)Cc1nc2ccc(Cl)cc2c(-c2ccccc2)c1CO |
| 163 | O=C(Nc1ccn[nH]1)c1cccnc1Cl |
| 93 to 94 | Cc1oc2c(C=Cc3c(Cl)cccc3Cl)cccc2c1C |
| 274 to 275 | CCCc1c(/C=C/c2ccc(C)cc2)nc2ccc(C(=O)O)cn2c1=O |
| 162 | CCc1nnc(-c2ccc(OC)cc2)n1-c1ccc(Cl)cc1 |
| 177 to 179 | CC(C)C(=O)N[C@H]1CCc2c(c3cc(Br)ccc3n2Cc2ccccc2)C1 |
| 180 to 182 | COc1ccc(OC)c(C(=O)c2cccc(OC)c2C(=O)O)c1 |
| 98 to 99 | CC(Cl)C(=O)Nc1nc(-c2ccccc2)cs1 (centres undefined) |
| 140 to 142 | O=C(O)C1=Cc2cc(Oc3ccc(Cl)cc3)ccc2OC1C(F)(F)F (centres undefined) |
| 101 | COC(C)=CC(=O)Nc1ccccc1C |
| 143 to 145 | COC(=O)c1cc(Cl)cc(I)c1O |
| 61 | COc1ccc(S(=O)(=O)C(C/C=C(\C)CCC=C(C)C)(Cc2ccc(OCCN3CCOCC3)cc2)C(=O)NO)cc1 (centres undefined) |
| 144 to 146 | CC#CCOc1ccc(S(=O)(=O)N(C)C(CCCSc2ccc(Cl)cc2)C(=O)NO)cc1 (centres undefined) |
| 99.1 to 99.2 | COCCCOc1ccc(CCC(=O)O)c(Oc2ncc(C(F)(F)F)cc2Cl)c1 |
| 162 to 165 | C[C@H](C(=O)O)n1ncn(-c2ccc(OCC(F)(F)C(F)F)cc2)c1=O |
| 159 to 162 | CC(=O)c1ccc2c(c1)OCC(C(=O)O)O2 (centres undefined) |
| 202 to 203 | CCCc1ccc(S(=O)(=O)Nc2ccc3ncncc3c2)cc1 |
| 42 to 43 | CCCCCCCC(=O)OCCCCCCOc1ccc(Nc2ccccc2)cc1 |

| melting point [°C] | Compound |
| --- | --- |
| 251 to 254 | N#Cc1c(Cl)c[nH]c1-c1ccc(Cl)cc1 |
| 93 to 94 | Cc1ccc(C)c(OCCCC(C)(C)C(=O)Nc2cccc([N+](=O)[O-])c2)c1 |
| 127 to 130 | NC(=O)c1c(N)cccc1OCCOc1ccccc1 |
| 233 to 235 | Cc1nc(N(C)C)ccc1N1CCCn2c1nc1c(Cl)ccc(C(OC(F)F)C(F)(F)F)c12 (centres undefined) |
| 65 to 67 | CCOc1ccccc1-c1cc(NC(=O)C2CCN(CC)CC2)ncn1 |
| 131 to 132 | COC(=O)c1ccc(Cn2ncc3ccc(N)cc32)cc1 |
| 136 to 137 | C=Cn1nc(-c2cc(C(C)(C)C)c(O)c(C(C)(C)C)c2)c2ccc(C)nc21 |
| 170 to 171 | COc1ccc2c(=O)cc(-c3cc[nH]n3)oc2c1 |
| 116 to 119 | O=C(Nc1ccc(C(=O)N2Cc3ccccc3Sc3ccccc32)cc1)c1ccccc1Cl |
| 104 to 106 | Cc1cccc(C(=O)O)c1OCc1ccc(C(F)(F)F)cc1 |
| 265 to 268 | O=C1Nc2cc(CN3CCN(c4ccc(Cl)cc4)CC3)cnc2N2CCC[C@@H]12 |
| 202 to 203 | Cc1ccc2c(c1)OC(C(F)(F)F)C(C(=O)O)=C2 (centres undefined) |
| 199 to 200 | NCc1[nH]c2ccc(Cl)cc2c1-c1c(F)cccc1F |
| 189 to 190 | Cc1cc(-c2nc3cccnn3c2-c2ccnc(NC(=O)c3ccccc3)c2)ccc1F |
| 99 to 100 | COc1ccc(C=Cc2ccc(CBr)cc2)c(Cl)c1 |
| 134 to 135 | CC(C)(C=CBr)C(=O)Nc1ccc(Cl)cc1 |
| 163 to 165 | COC(=O)C(CCSC)N(C(=O)OC(C)(C)C)C(=O)c1ccc(N)c(C)c1 (centres undefined) |
| 133 to 135 | CCc1ccc(Nc2nnc(Cc3ccnc(OC)c3)c3ccccc23)cc1Br |
| 171 to 173 | O=C(O)CCc1oc(-n2ccnc2CO)nc1-c1ccc(Cl)cc1 |
| 122 to 123 | COc1cccc(C2(c3cccc(OC)c3)CC2(C)C=O)c1 (centres undefined) |
